Laboratory results as given in patent publication US20140349320A1, “Using Adaptive Immunity to Detect Drug Resistance” (The Trustees of the University of Pennsylvania, priority 2011, published 2014).

How the values were obtained:
[1] = tested on: MTB strains (Haarlem family, wild-type parent and rpoB S450L rifampicin-resistant isolate); type: cell-based, Mycobacterium tuberculosis
[2] = tested on: MTB strains (Beijing family, wild-type parent and rpoB H445D rifampicin-resistant isolate); type: cell-based, Mycobacterium tuberculosis

| SMILES | drug susceptibility [1] | drug susceptibility [2] | MIC [2] |
| --- | --- | --- | --- |
| CC[C@@H](CO)NCCN[C@@H](CC)CO [ethambutol] | susceptible | susceptible | – |
| NNC(=O)c1ccncc1 [isoniazid] | susceptible | susceptible | < 0.2 µg/mL |
| NC(=O)c1cnccn1 [pyrazinamide] | susceptible | susceptible | – |
